# US12350382B2, “Method for preparing particles comprising metal oxide coating and particles with metal oxide coating” (priority 2007, dated 2025)
# Assay: Analytical evaluation of the BPO release out of the silica shell (time for yellow color appearance, KI/sodium thiosulfate)
# Format: physicochemical
# Conditions: free (uncoated) BPO, 0 coatings, no aging
# Experimental: The release profile of BPO out of the silica shell was done in a water/Acetonitrile solution, which is capable of dissolving BPO. The method is based on the strong oxidation properties of BPO. BPO reacts with potassium iodine (KI) ions to form I2, which gives a color reaction. I2 is than reduces back to I^− using sodium thiosulfate (STS) to eliminate the color. Each 12.11 mg of oxidizing BPO was reduced by 1 ml of 0.1M STS.
# Solution A is composed of deionized water, acetone, 0.1M STS solution and KI.
# The following table includes the ratios between the components in order to distinguish a certain % of released BPO.
# Suspension B, preparation of BPO: weigh 200 mg of BPO as 100% (1 g as 20% suspension) into 5 ml measuring bottle and fill with deionized water up to 5 ml.
# Procedure: Into 50 ml glass beaker add 40 ml of solution A and the 5 ml of suspension B and measure the time for yellow color appearance.
structure (smiles),measurement,value
"O=C(OOC(=O)c1ccccc1)c1ccccc1 [Free BPO, benzoyl peroxide]",time for 30 % of BPO released,0.5 min
same,time for 90 % of BPO released,1 min
